In patent US20240199555A1, “APPLICATIONS OF BIASED LIGANDS OF THE SEROTONIN 5-HT7 RECEPTOR FOR THE TREATMENT OF PAIN, MULTIPLE SCLEROSIS AND THE CONTROL OF THERMOREGULATION” (Centre National de la Recherche Scientifique, priority 2021, published 2024):

How the values were obtained:
human 5-HT1A receptor = human 5-HT1A receptor (Homo sapiens (Human), UniProt P08908); test: Radioligand binding competition, 5-HT1A; conditions: selectivity panel
Procedure: (§1) FIG. 14: Testing of 8 molecules for radioligand binding competition activity on recombinant human 5-HT1A, 5-HT2A, 5-HT2Cedited, 5-HT6, 5-HT7 and D2(long) receptors using filtration binding assays.
(§2) Radioligand Binding experiments were conducted with Epics Therapeutics membrane preparations. Receptor accession numbers, cellular background and reference compounds are shown in this table.
(§3) The new compounds have been tested by radioligand binding competition activity at the human 5-HT1A (FAST-0500B), 5-HT2A (FAST-0505B), 5-HT2Cedited (FAST-0507B), 5-HT6 (FAST-0509B), 5-HT7a (FAST-05111B) and D2(long) (FAST-0101B) receptors at seven (7) concentrations, in duplicate. […] Reference values thus obtained for the test were compared to historical values obtained from the same receptor and used to validate the experimental session. For replicate determinations, the maximum variability tolerated in the test was of +/−20% around the average of the replicates.
(§4) Dose-response data from test compounds were analyzed with XLfit (IDBS) software using nonlinear regression applied to a sigmoidal dose-response model and the following equation: • XL Fit fit Model 203: 4 Parameter Logistic Model • A: Bottom • B: TOP • C: LogEC50 • D: Hill

[1] = molecular target: human 5-HT2Cedited receptor (Homo sapiens, UniProt P28335); test: Radioligand binding competition, 5-HT2Cedited; conditions: selectivity panel
Procedure: as §1, §2, §3, §4

[2] = system: neuronal culture endogenously expressing 5-HT7R; test: pERK immunocytochemistry in mixed neuronal cultures; format: cell-based, mice; conditions: 10 μM; 7, 15, 30 min
From the text: FIG. 4: Serodolin stimulation induces ERK phosphorylation in neuronal culture. […] These images are representative of two independent experiments. (B) pERK fluorescence intensity (AU) from immunofluorescence staining. Results represent mean±SEM of values obtained in two independent experiments (150-200 cells counted per group). ****P<0.0001 ***P<0.001 **P<0.01 *P<0.05. Statistical analysis was done using Tukey's multiple comparison test. Cerebral cortex from embryos (E15) mice were collected and mechanically dissociated in 1 mL of HBSS (-Ca^2+) (Sigma) with HEPES (H3375, Sigma). […] Neuronal differentiation was performed in 24-well plates, during 7 days with 3 medium changes per week. Stimulated neuronal culture were fixed with 4% paraformaldehyde in PBS during 10 min and then washed with PBS. Cells were saturated with 0.3% Triton X-100 in 1% BSA in TBS-FCS 10% for 1 hr, followed by three washes in TBS and incubated overnight with rabbit anti-pERK (9101 1/200, Cell Signaling) and mouse anti-MAP2 (119942 1/250, Sigma), anti-GFAP (G61711/250, Sigma) in TBS with 1% BSA, 10% FCS and 0.3% Triton X-100. […] Images were processed with the Zen software analyzed with Image J.

mouse = test: Effect on body temperature; format: in vivo; conditions: intravenous
From the text: FIG. 13: Evaluation of the effect of Serodolin on body temperature.
FIG. 17: Evaluation of the effect of MOA51 on body temperature. Results expressed in ° C.
The time course of the effect of Serodolin on the body temperature has been evaluated in the mouse following intravenous administration.

Chain of human 5-HT1A receptor (P08908 whole entry): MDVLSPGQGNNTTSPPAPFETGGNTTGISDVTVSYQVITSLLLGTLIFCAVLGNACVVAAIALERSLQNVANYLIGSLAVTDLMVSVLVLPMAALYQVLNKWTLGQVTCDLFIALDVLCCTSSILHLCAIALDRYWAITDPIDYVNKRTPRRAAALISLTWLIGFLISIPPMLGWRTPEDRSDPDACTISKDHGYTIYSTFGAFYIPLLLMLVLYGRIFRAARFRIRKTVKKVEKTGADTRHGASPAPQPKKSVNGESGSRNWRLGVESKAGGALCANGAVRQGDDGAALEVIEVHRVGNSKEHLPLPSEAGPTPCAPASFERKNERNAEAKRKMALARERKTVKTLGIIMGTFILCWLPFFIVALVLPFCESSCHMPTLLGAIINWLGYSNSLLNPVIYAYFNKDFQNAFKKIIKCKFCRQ
Chain of human 5-HT2Cedited receptor (P28335 33-458 limits assumed): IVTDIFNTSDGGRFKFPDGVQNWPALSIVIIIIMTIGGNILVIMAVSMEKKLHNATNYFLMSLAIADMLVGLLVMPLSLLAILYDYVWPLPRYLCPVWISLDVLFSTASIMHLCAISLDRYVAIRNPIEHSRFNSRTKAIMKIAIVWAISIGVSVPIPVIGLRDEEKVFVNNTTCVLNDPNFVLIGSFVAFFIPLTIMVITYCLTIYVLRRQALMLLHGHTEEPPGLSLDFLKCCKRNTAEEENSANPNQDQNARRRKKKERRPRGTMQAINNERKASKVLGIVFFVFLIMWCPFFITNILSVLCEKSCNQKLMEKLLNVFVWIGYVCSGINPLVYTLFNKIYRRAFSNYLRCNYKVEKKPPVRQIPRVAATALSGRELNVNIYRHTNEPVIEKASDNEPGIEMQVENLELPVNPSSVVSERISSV

Work on O=c1[nH]c2ccccc2n1CN1CCN(c2ccc(F)cc2)CC1 [Serodolin] yielded an IC50 (human 5-HT1A receptor; read-out: RLB 5-HT1A IC50) of 0.203 µM, a Ki (human 5-HT1A receptor; read-out: RLB 5-HT1A Ki) of 0.102 µM and an IC50 ([1]; read-out: RLB 5-HT2Cedited IC50) of 1.11 µM. For the same compound, the Ki ([1]; read-out: RLB 5-HT2Cedited Ki) was 0.182 µM, the “ERK phosphorylation in neuronal culture” value [2] was “ERK phosphorylation also occurs in neuronal culture” and the “decrease in body temperature, Emax” value (mouse; 1 mg/kg, at 30 min) was −2.9 °C. The “decrease in body temperature, Emax” value (mouse; 3 mg/kg, at 30 min) was −3.6 °C and the “decrease in body temperature, Emax” value (mouse; 10 mg/kg, at 60 min) was −7.9 °C.
